Source: patent US9259409B2, “Compositions comprising a prostaglandin for treating neuropsychiatric conditions” (Inceptum Research & Therapeutics, Inc., priority 2011, dated 2016)
“Also recorded” adds a separate entry of the source.

How the values were obtained:
DBA/2J mice = assay: Open field test, amphetamine-stimulated activity mouse model of bipolar disorder; format: in vivo
Procedure: DBA/2J strain mice (Jackson Laboratories, Bar Harbor, Me., USA) were obtained with an approximate starting age of 8 weeks and an average body weight of 25.9 g. Mice were acclimatized for at least three days prior to study commencement, and animals in poor condition were rejected during the acclimatization period. All mice were housed under identical conditions in animal rooms with HEPA-filtered air at a temperature of 70° F.+/−5° F. and a relative humidity of 50%+/−20%. Animal rooms maintained a minimum of 12 to 15 air changes per hour with a light/dark cycle of 12 hours on and 12 hours off with no twilight. Sterile Bed-O-Cobs® bedding was used and changed a minimum of once per week. […]
At the commencement of the study, sixty (60) mice were randomly divided into six (6) groups of ten (10) animals. […] During this time, distance traveled was automatically recorded using TopScan (Clever Sys, Reston, Va., USA) video tracking software.
The data herein indicate that PG and PG derivatives may be effective in treating neuropsychiatric conditions such as bipolar disorder. Therefore, we evaluated the efficacy of latanoprost in an open field model of bipolar disorder in mice. […]
Total distance traveled for each mouse over a 20-minute session was recorded using TopScan (Clever Sys, Reston, Va., USA) video tracking software. […]

GSK-3 [1] = assay: Cytoplasmic β-catenin stabilization in HEK293T cells (Western blot); format: cell-based, human; settings: 10 μM, vs DMSO-treated cells
Procedure: Human embryonic kidney 293T (HEK293T) cells, U87MG astrocytoma and the human oligodendrocyte cell line MO3-13 were grown in Dubelco Minimal Eagle Media (DMEM) (Invitrogen, Carlsbad, Calif., USA) supplemented with 5% heat inactivated fetal bovine serum. Cells were grown to 70% confluence prior to treatment. […] Cells were exposed to drug for 3 hours at 37° C. in a 5% CO2 incubator. U87MG cells were grown to 70% confluence prior to treatment. Cells were treated with either DMSO vehicle (NT) or individually with 1, 5 and 10 μM latanoprost in DMEM lacking fetal bovine serum. Cells were exposed to treatments for 6 hours at 37° C. in a 5% CO2 incubator. The human oligodendrocyte cell line MO3-13 was grown and differentiated according to the methods described in McLaurin et al. (McLaurin, J., Trudel, G. C., Shaw, I. T., Antel, J. P., and Cashman, N. R., J. Neurobiol., 26: 283-293, 1995). On the third day of serum starvation, cells were treated with either DMSO vehicle (NT) or individually with 1, 5 and 10 μM latanoprost. Cells were exposed to treatments for 6 hours at 37° C. in a 5% CO2 incubator.
For detection of CREB and Serine-133 (S133)-phosphorylated CREB, serotonin receptor 5HT2A, TCF/LEF1, BDNF and TNF-total protein extracts were prepared from cell cultures using a sintered glass tissue homogenizer (Wheaton, Millville, N.J., USA) in phosphate-buffered saline (PBS), pH 7.5, 3M urea. For detection of β-catenin, cell cultures were washed with PBS, trypsinized, and pelleted at 1,000 rpm for 4 minutes. The cell pellets were washed and resuspended in cold hypotonic buffer consisting of 10 mM HEPES (pH 7.5), 1.5 mM MgCl2, 10 mM KCl, 0.5 mM DTT, and EDTA-free protease inhibitor (Roche, Laval, QC, Canada) in an ice bath for 5 minutes. The mixture was then homogenized using a dounce homogenizer and the cellular debris was pelleted by centrifugation at 4° C. Cytoplasmic fractions were recovered and used for assaying β-catenin.
Protein concentrations were determined by the Peterson method (Peterson, Analyt. Biochem., 83: 346-356, 1977). […]

GSK-3 [2] = assay: Glycogen deposition in fat body tissue of third instar larvae; format: cell-based, Drosophila melanogaster; settings: 10 and 20 μM; vs vehicle (DMSO)
Procedure: GSK-3 also functions in glycogen deposition via an independent pathway to that of the Wnt/Wg signaling pathway. GSK-3 functions in the glycogen deposition pathway by phosphorylating and inactivating glycogen synthase, which catalyzes the rate-limiting step of glycogen synthesis. To further confirm that PG and PG derivatives inhibit GSK-3 activity, fat body tissue from third instar Drosophila melanogaster larvae was treated with vehicle (DMSO) or 10 and 20 μM latanoprost and the effects of drug treatment on glycogen accumulation was monitored.

β-catenin = β-catenin stabilization in the brain of open field test mice (Western blot); format: in vivo, mouse; settings: brains after open field test; relative to mice treated with saline; n=3
Procedure: Following the open field test behavioral analysis of mice, the mice were euthanized and their brains were dissected and bifurcated along the longitudinal fissure. Brain samples from mice treated with vehicle (saline), latanoprost, or lithium were processed for β-catenin stabilization by extraction with hypotonic buffer. The levels of stabilized β-catenin were analyzed by Western blot, and the relative amounts of β-catenin (represented as the mean relative amount of three mice per group) were quantified.

## CC(C)OC(=O)CCC/C=C\C[C@@H]1[C@@H](CC[C@@H](O)CCc2ccccc2)[C@H](O)C[C@@H]1O [latanoprost, propan-2-yl-(Z)-7-[(1R,2R,3R,5S)-3,5-dihydroxy-2-[(3R)-3-hydroxy-5-phenylpentyl]cyclopentyl]-hept-5-enoate]
DBA/2J mice; final five minutes of 20-minute open field test, 0.5 mg/kg amphetamine, drug IP 1 hour prior to test, 0.5 mg/kg
  amphetamine-stimulated locomotion (distance traveled): significantly reduced; also recorded: significantly (P<0.05) attenuates
DBA/2J mice; no amphetamine, compared among vehicle, latanoprost, lithium
  activity in saline-treated mice: No significant differences
GSK-3 [1]
  levels of cytoplasmic β-catenin: increased levels of cytoplasmic β-catenin
GSK-3 [2]
  glycogen accumulation in fat body tissue: increase in glycogen accumulation in a dosage-dependent manner
β-catenin
  levels of β-catenin in brain: significantly increased levels of β-catenin
